± gives the expanded uncertainty stated by the source.
Assay: refractive index (Na D-line) (dimensionless); wn = mass fraction of the nth substance listed
Settings: 288.15 K, 100 kPa, Liquid, Standard Abbe refractometry

[Br-].[Br-].[Ca+2] [calcium bromide] + O
refractive index (w1 = 0.5794): 1.4892 ± 0.0004

[Ca+2].[Cl-].[Cl-] [calcium chloride] + O
refractive index (w1 = 0.4075): 1.4428 ± 0.0004

[Br-].[Li+] [lithium bromide] + O
refractive index (w1 = 0.5929): 1.4744 ± 0.0004

[Cl-].[Li+] [lithium chloride] + O
refractive index (w1 = 0.4395): 1.4343 ± 0.0004

From the NIST ThermoML archive (doi:10.1021/acs.jced.6b00855)
